Laboratory results from patent US20120220520A1, “BIOAVAILABLE COMBINATIONS FOR HCV TREATMENT” (priority 2006, published 2012).
Values joined by “and” are separate entries in the source; they are usually repeats but may differ in a detail not shown here. Equal values may be shown once.

Test: In vitro metabolic blocking of HCV NS3/4a protease inhibitors by compound of formula (II) in human liver microsomes
Format: in vitro ADME
Details: for % Detected Compound, Incubation time: 30′, Compound of formula (II) / % Detected Compound, Incubation time: 120′, Compound of formula (II): 3 μM test compound + 10 μM compound of formula (II); for % Detected Compound, Incubation time: 30′, Compound of formula (II) / % Detected Compound, Incubation time: 120′, Compound of formula (II) / % Detected Compound, Incubation time: 30′, No Booster / % Detected Compound, Incubation time: 120′, No Booster: human liver microsomes 1 mg/ml, 37° C., % of initial concentration; for % Detected Compound, Incubation time: 30′, Compound of formula (II) / % Detected Compound, Incubation time: 30′, No Booster: 30 min; for % Detected Compound, Incubation time: 120′, Compound of formula (II) / % Detected Compound, Incubation time: 120′, No Booster: 120 min; for % Detected Compound, Incubation time: 30′, No Booster / % Detected Compound, Incubation time: 120′, No Booster: 3 μM test compound
Protocol: Different HCV NS3/4a protease inhibitors were tested in a metabolic blocking experiment using 3 μM test compound together with 10 μM of compound of formula (II) acting as a cytochrome P450 inhibitor (or booster).
Test compounds and compound of formula (II) were added to human liver microsomes (protein concentration 1 mg/ml) suspended in potassium phosphate buffer (pH=7.4), to get final reaction mixture concentrations of 3 μM test compound and 10 μM of compound of formula (II). In the non-boosted parallel reactions, compound of formula (II) was not added. Boiled human liver microsomes were used for blank experiments. After addition (in a 1:3 ratio) of a cofactor mixture consisting of β-nicotinamide adenine dinucleotide phosphate (β-NADP, 0.5 mg/ml, 653.2 μM), D-Glucose-6-phosphate (2 mg/ml, 7.1 mM), Glucose-6-phosphate dehydrogenase (1.5 U/ml) in 2% NaHCO3, the reaction mixture was incubated at 37° C. for 30 or 120 minutes after which the reaction was stopped by increasing the temperature to 95° C. Test compound concentrations were determined using HPLC-MS.
Values are percentages of test compound detected after the indicated incubation times as compared to the initial test compound concentration. In Table 3, each value is the mean of the results of two independent experiments. In Table 4, each value is the result of an independent experiment.

[1] = mean of two independent experiments
[2] = each value one independent experiment

Compound | % Detected Compound, Incubation time: 30′, Compound of formula (II) [1] [%] | % Detected Compound, Incubation time: 120′, Compound of formula (II) [1] [%] | % Detected Compound, Incubation time: 30′, No Booster [1] [%] | % Detected Compound, Incubation time: 120′, No Booster [1] [%] | % Detected Compound, Incubation time: 30′, Compound of formula (II) [2] | % Detected Compound, Incubation time: 120′, Compound of formula (II) [2] | % Detected Compound, Incubation time: 30′, No Booster [2] | % Detected Compound, Incubation time: 120′, No Booster [2] | blocking of test compound metabolisation (10 μM compound of formula (II) added to 3 μM test compound, human liver microsomes)
COc1ccc2c(O[C@@H]3C[C@H]4C(=O)N[C@]5(C(=O)NS(=O)(=O)C6CC6)C[C@H]5/C=C\CCCCN(C)C(=O)[C@@H]4C3)cc(-c3nc(C(C)C)cs3)nc2c1 [Compound 7] | 166 | 160 | 141 | 48 | – | – | – | – | –
COc1ccc2c(O[C@@H]3C[C@H]4C(=O)N[C@]5(C(=O)NS(=O)(=O)C6CC6)C[C@H]5/C=C\CCCCN(C)C(=O)[C@@H]4C3)cc(-c3nc(C(C)C)cs3)nc2c1C [Compound 13] | – | – | – | – | 43% and 83% | 51% and 95% | 90% and 87% | 89% and 82% | –
COc1ccc2c(O[C@@H]3C[C@H]4C(=O)N[C@]5(C(=O)NS(=O)(=O)C6CC6)C[C@H]5/C=C\CCCCN(C)C(=O)N4C3)cc(-c3nc(C(C)C)cs3)nc2c1 [Compound 21] | 151 | 135 | 109 | 25 | – | – | – | – | –
COc1ccc2c(O[C@@H]3C[C@H]4C(=O)N[C@]5(C(=O)NS(=O)(=O)C6CC6)C[C@H]5/C=C\CCCCCNC(=O)N4C3)cc(-c3nc(C(C)C)cs3)nc2c1 [Compound 18] | 131 | 196 | 42 | 0 | – | – | – | – | –
COc1ccc2c(O[C@@H]3C[C@H]4C(=O)N[C@]5(C(=O)O)C[C@H]5/C=C\CCCCC[C@H](NC(=O)OC5CCCC5)C(=O)N4C3)cc(-c3csc(NC(C)C)n3)nc2c1 [BILN-2061, reference compound] | 163 | 128 | 129 | 76 | – | – | – | – | –
COc1ccc2c(O[C@@H]3C[C@H]4C(=O)N[C@]5(C(=O)NS(=O)(=O)C6CC6)C[C@H]5/C=C\CCCCCCC(=O)N4C3)cc(-c3nc(C(C)C)cs3)nc2c1 [Compound 26] | 128 | 101 | 16 | 0 | – | – | – | – | –
CC(C)CN(C[C@H](O)[C@@H](Cc1ccccc1)NC(=O)OCc1cncs1)S(=O)(=O)c1ccc2nc(N)oc2c1 [compound of formula (II)] | – | – | – | – | – | – | – | – | almost complete blocking
